# Patent US20230210832A1, “METHODS FOR TREATING ALZHEIMER'S DISEASE” (priority 2020, published 2023)
# B1: Ang-2 peptide: human Ang-2 peptide (abcam; ab99482), Tie-2 receptor ligand (protein, UniProt O15123 19-496, looked up)
# Angiopoietin-2: YNNFRKSMDSIGKKQYQVQHGSCSYTFLLPEMDNCRSSSSPYVSNAVQRDAPLEYDDSVQRLQVLENIMENNTQWLMKLENYIQDNMKKEMVEIQQNAVQNQTAVMIEIGTNLLNQTAEQTRKLTDVEAQVLNQTTRLELQLLEHSLSTNKLEKQILDQTSEINKLQDKNSFLEKKVLAMEDKHIIQLQSIKEEKDQLQVLVSKQNSIIEELEKKIVTATVNNSVLQKQQHDLMETVNNLLTMMSTSNSAKDPTVAKEEQISFRDCAEVFKSGHTTNGIYTLTFPNSTEEIKAYCDMEAGGGGWTIIQRREDGSVDFQRTWKEYKVGFGNPSGEYWLGNEFVSQLTNQQRYVLKIHLKDWEGNEAYSLYEHFYLSSEELNYRIHLKGLTGTAGKISSISQPGNDFSTKDGDNDKCICKCSQMLTGGWWFDACGPSNLNGMYYPQRQNTNKFNGIKWYYWKGSGYSLKATTMMIRPADF
# Assays:
# [1] = system: Human brain endothelial cells (HBEC-5i); assay: Western blot of HBEC-5i cell lysates after peptide treatment; assay type: cell-based; conditions: 24 hrs, Aβ peptides 10 μM, Ang-2 200 ng/ml, VEGFA-165 100 ng/ml, vs PBS-treated cells
# Experimental: Human brain endothelial cells, HBEC-5i (ATCC® CRL-3245™) were cultured on 0.1% gelatin coated tissue culture plates in DMEM-F12 media (Gibco; cat. #10565-018) supplemented by 10% heat-inactivated fetal bovine serum (FBS) (Gibco; cat. #A31607-01) and 40 μg/ml endothelial growth supplement (Sigma-Aldrich; cat. #E2759). Cells were grown until they reached 70% confluency and then used for experiments.
# Cell culture: Human brain endothelial cells were grown in 10 cm tissue culture plates. […] After the treatment, the medium was removed, and cells were washed with PBS and then lysed with RIPA buffer that contained protease and phosphatase inhibitors. These cells were then used to analyze different proteins of interest.
# Immunoblotting analysis and co-immunoprecipitation: For western blot analysis, the fractional homogenate samples were prepared with Dithiothreitol (DTT) in the sample buffer (100 mM Tris-Cl (pH 6.8), 4% (w/v) SDS, 0.2% (w/v) bromophenol blue, 20% (v/v) glycerol and 200 mM DTT). Homogenates were electrophoresed and immunoblotted with indicated antibodies. […] The proteins in the eluate were resolved on the acrylamide gel according to standard practices. […] The signal intensities were imaged by using the Odyssey infrared image system (LICOR), and relative levels of immunoreactivity were analyzed by the Image Studio Lite software.
# [2] = system: Tg2576 AD model mice and WT (B6/SJL) littermates; assay: Spontaneous alternation (Y-maze); assay type: in vivo, mouse; conditions: drug-treated Tg2576 mice, 1-month treatment; mean±standard deviation
# Experimental: Spontaneous alternation (Y-maze): The test for novelty exploration using spatial and working memory was conducted using a symmetrical Y-maze with a grey steel bottom plate and grey Perspex® walls (Stoelting Co, Wood Dale, Ill.). Each arm of the Y-maze was 35 cm long, 5 cm wide, and 10 cm high, and the wall at the end of each arm was identified by a different colour: white, blue or red. The spatial acquisition phase comprised a one-day trial with the mice tracked while moving freely through the three arms of the Y maze during an 8-minute session. The movements were tracked by a computer tracking system (ANY-maze, Stoelting). The performance was gauged by the percentage of alternations that was calculated as the total number of alternations×100/(total number of arm entries−2). Alternation was defined as successive entries into the three arms on overlapping triplet sets. A high percentage of alternation was indicative of sustained cognition, as the animals must remember which arm was entered last to avoid re-entering it.
# [3] = system: Tg2576 AD model mice and WT (B6/SJL) littermates; assay: Contextual fear conditioning; assay type: in vivo, mouse; conditions: 1-month treatment, mean±standard deviation
# Experimental: Contextual Fear Conditioning: The apparatus consisted of a transparent chamber inside an enclosure with an opening in the ceiling to allow video recordings. The chamber consisted of a steel grid floor connected to a shock generator scrambler. The test encompassed two sessions: conditioning and a context test. On the conditioning day, the mice were individually placed in the chamber and allowed to explore freely for 5 minutes during which, at the 180th second, they received a foot shock of 0.50-0.80 mA for 3 seconds through the bars of the floor. 24 hours after conditioning, the mice were individually placed back in the chamber for 4 minutes, this time with no noxious stimuli. The mice were monitored for movement and freezing behaviour was recorded using computer software (Limelight, ActiMetrics, Wilmette, Ill., USA). Exclusion criteria were set for freezing events less than 2 seconds. This test was used to determine associative working memory. We explored the animal's ability to associate an environment with a noxious event that it experienced there. […] Freezing is a species-specific response to fear, which is defined as “the absence of movement except for respiration.” This may last for seconds to minutes depending on the strength of the aversive stimulus and whether the subject is able to recall the shock.
# physchem = conditions: 100% DMSO, organic solvent or mixture
# [4] = mice, 26 weeks of once daily oral gavage administration; cited from earlier work
Molecule,expression of VEGFR2 [1],percentage of alternation [2],freezing percentage ([3]; drug-treated Tg2576 mice),freezing percentage ([3]; drug-treated WT (B6/SJL) mice),solubility (physchem),no-observed-adverse-effect-levels (NOAELs) [4]
"Aβ1-42 peptide: Aβ1-42 peptide (NovoPrep synthetic peptide), predominantly found in plaques",did not exert a similar effect,–,–,–,–,–
CCN(CC)CCNC(=O)c1c(C)[nH]c(/C=C2\C(=O)Nc3ccc(F)cc32)c1C [Sunitinib],–,49.3±12.1%,10.9±5.8%,25.4±19.4%,30 mg/mL,–
CNC(=O)c1ccccc1Sc1ccc2c(/C=C/c3ccccn3)n[nH]c2c1 [Axitinib],–,–,14.4±7.3%,17.74±14.4%,40 mg/mL,< 10 mg/kg/day
B1,slight increase,–,–,–,–,–
